Laboratory results from patent US20250000869A1, “TOPICAL COMPOSITIONS OF 2-PHENYL-3, 4-DIHYDROPYRROLO [2, L-F] [1, 2, 4] TRIAZINONE DERIVATIVES AND USES THEREOF” (TOPADUR PHARMA AG, priority 2021, published 2025).
Where two headings read alike, the source gives them in different places.

Tests used:
uPAR−/− mice = test: Healing of full thickness excisional cutaneous wounds after topical, on wound administration; type: in vivo
Description: The urokinase-type plasminogen activator receptor deficient (uPAR−/−) mouse that reproduces cardinal features of SSc (dermal) vasculopathy and fibrosis is an animal model of systemic sclerosis that is considered as disease-relevant. The uPAR−/− mouse integrates apoptosis of dermal endothelial cells, a decreased density of dermal microvessels and endothelial to mesenchymal transition reflecting vasculopathy with dermal thickening, collagen accumulation, enhanced myofibroblast counts reflecting skin fibrosis. uPAR−/− induces and develops dermal and pulmonary fibrosis (Manetti M et al. Ann Rheum Dis. (2014) 73:1700-1709; Manetti M et al Ann Rheum Dis. (2017) 76:924-934; Schniering J et al., (2019) In Atlas of Ulcers in Systemic Sclerosis. Diagnosis and Management. Matucci-Cerinic M and Denton C P (eds). Springer, Chain, Switzerland, pp. 27-37).
uPAR−/− mice were bred from mating of heterozygotes (uPAR+/−; obtained from Institute for Translational Neurology and Neurology Clinics, University of Munster, Germany). Pups were genotyped and uPAR−/− mice obtained at Mendelian frequency. Two full thickness, excisional cutaneous wounds (6 mm diameter corresponding to an area of 28.3 mm^2) were generated, symmetrically to the dorsum midline. To this end, at the day before surgery, mice were anaesthetized with Isoflurane and their dorsum was shaved using Veet® depilatory cream and clippers. At the next following day, preoperative analgesia was administered at 30 min before surgery consisting of 0.1 mg/kg of Buprenorphine and 5 mg/kg of Ketoprofen. Animals were anesthetized with Isoflurane. Two full thickness wounds (including epidermis, dermis, hypodermis, panniculus carnosus; depth about 500 μm) of 6 mm diameter each were created using a biopsy punch and scissors each with identical, at least 10 mm distance left or right from the dorsum midline. To minimize wound contraction, wounds were splinted using a silicon splint (Grace Bio-Labs silicone wound splints, red with suture sites, outer diameter×inner diameter×thickness 14 mm×7 mm×0.5 mm). Splints were kept in place using six interrupted surgical sutures (6/0 polyamide-Ethylon) and Superglue (ethyl 2-cyanoacrylate glue) (Park S A et al. Wound Repair Regen. (2014) 22(3):368-380; Park S A et al. Wound Repair Regen. (2015) 23(2):251-261).
The cutaneous ulcers and the splint were protected using a plastic cover maintained using a non-woven adhesive dressing (Hypafix® (Smith & Nephew)) and a semiocclusive adhesive transparent dressing (Tegaderm™, (3M™)). Ketoprofen (5 mg/kg) and Buprenorphine (0.05 mg/kg) were administered for 3 days and then Buprenorphine (0.05 mg/kg) as needed. The estimated volume of a cutaneous ulcer was 28.3 mm^2 area×0.5 mm depth=14.15 mm^3 or 14.15 μl. […]

rat aortic rings = test: Relaxation of rat aortic rings; conditions: earlier effected measurements
[1] = Solubility screening of Compound 1 in various solvents/solvent systems; type: physicochemical; conditions: read-out: Determined Solubility
Description: A solubility screening of Compound 1 was effected. […] In general, three potential approaches where covered: i) polar organic co-solvents, ii) solubilization by surfactants and iii) oils which may, in particular, serve as a basis of an emulsion gel. A phosphate buffer of pH 6.5 with low molarity was used as this salt and pH is suitable for application on wounds. It is of note that the resulting pH of the screened systems is about 7.3.

Plasma protein binding = type: in vitro ADME; conditions: mouse, mice, read-out: unbound fraction (fu), plasma protein binding

CCCOc1ccc(S(=O)(=O)N2CCC(CCO[N+](=O)[O-])CC2)cc1-c1nn2c(CCC)c(/C=N/O)c(C)c2c(=O)[nH]1 [Compound 1, 2-[1-(3-{6-[(1E)-(hydroxyimino)methyl]-5-methyl-4-oxo-7-propyl-3H,4H-pyrrolo[2,1-f][1,2,4]triazin-2-yl}-4-propoxybenzenesulfonyl)piperidin-4-yl]ethyl nitrate]
acceleration of wound closure versus Vehicle (uPAR−/− mice; uPAR−/− mice, based on means of % Wound Closure from day 5 to day 8): about 1 day | AUEC for % wound closure compared to vehicle (uPAR−/− mice; uPAR−/− mice, day 0-7): significant increase | healing of full thickness excisional cutaneous wounds (conclusion) (uPAR−/− mice; uPAR−/− mice, once daily topical, in form of Topical Composition A2): improved | part of wound closure delay associated with uPAR deficiency restored (uPAR−/− mice; uPAR−/− vs uPAR+/+ mice, from AUEC (Table 6)): about half | IC40 for relaxation of rat aortic rings (rat aortic rings): 8 µM | solubility ([1]; 1% poloxamer 407 in phosphate buffer, pH 6.5, aqueous with cosolvent or surfactant or cyclodextrin, 1% poloxamer 407 in PB, PB = Phosphate buffer 10 mmol/L pH 6.5): 270 µg/mL | solubility ([1]; 1% polysorbate 80 in phosphate buffer, pH 6.5, aqueous with cosolvent or surfactant or cyclodextrin, 1% polysorbate 80 in PB, PB = Phosphate buffer 10 mmol/L pH 6.5): 77 µg/mL | solubility ([1]; 3% polysorbate 80 in phosphate buffer, pH 6.5, aqueous with cosolvent or surfactant or cyclodextrin, 3% polysorbate 80 in PB, PB = Phosphate buffer 10 mmol/L pH 6.5): 139 µg/mL | solubility ([1]; 8% polysorbate 80 in phosphate buffer + 3% benzyl alcohol, pH 6.5, aqueous with cosolvent or surfactant or cyclodextrin, 8% polysorbate 80 in PB + 3% benzyl alcohol, PB = Phosphate buffer 10 mmol/L pH 6.5): 56 µg/mL | solubility ([1]; 8% polysorbate 80 in phosphate buffer + 10% MCT, pH 6.5, aqueous with cosolvent or surfactant or cyclodextrin, 8% polysorbate 80 in PB + 10% MCT, PB = Phosphate buffer 10 mmol/L pH 6.5): 37 µg/mL | solubility ([1]; 8% polysorbate 80 in phosphate buffer + 10% ethanol, pH 6.5, aqueous with cosolvent or surfactant or cyclodextrin, 8% polysorbate 80 in PB + 10% ethanol, PB = Phosphate buffer 10 mmol/L pH 6.5): 43 µg/mL | solubility ([1]; 8% polysorbate 80 in phosphate buffer + 10% poloxamer 407, pH 6.5, aqueous with cosolvent or surfactant or cyclodextrin, 8% polysorbate 80 in PB + 10% poloxamer 407, PB = Phosphate buffer 10 mmol/L pH 6.5): 63 µg/mL | solubility ([1]; 8% polysorbate 80 in phosphate buffer, pH 6.5, aqueous with cosolvent or surfactant or cyclodextrin, 8% polysorbate 80 in PB, PB = Phosphate buffer 10 mmol/L pH 6.5): 67 µg/mL | solubility ([1]; 10% poloxamer 407 in phosphate buffer, pH 6.5, aqueous with cosolvent or surfactant or cyclodextrin, 10% poloxamer 407 in PB, PB = Phosphate buffer 10 mmol/L pH 6.5): 23.2 µg/mL | solubility ([1]; PEG 400/phosphate buffer (30:70, vol:vol), pH 6.5, aqueous with cosolvent or surfactant or cyclodextrin, PEG 400/PB (30:70, vol:vol), PB = Phosphate buffer 10 mmol/L pH 6.5): 1 µg/mL | solubility ([1]; PEG 400/phosphate buffer (70:30, vol:vol), pH 6.5, aqueous with cosolvent or surfactant or cyclodextrin, PEG 400/PB (70:30, vol:vol), PB = Phosphate buffer 10 mmol/L pH 6.5): 110 µg/mL | solubility ([1]; isopropyl myristate (IPM), oil or lipid, Isopropyl myristate (IPM)): 93 µg/mL | solubility ([1]; medium chain triglycerides (MCT), oil or lipid, Medium chain triglycerides (MCT)): 282 µg/mL | solubility ([1]; octyldodecanol (Kollicream OD), oil or lipid, Octyldodecanol (Kollicream OD)): 28 µg/mL | solubility ([1]; pH 6.5, aqueous with cosolvent or surfactant or cyclodextrin, PEG 400/PB (30:70, vol:vol) + 3% benzyl alcohol, PB = Phosphate buffer 10 mmol/L pH 6.5): 8 µg/mL | solubility ([1]; pH 6.5, aqueous with cosolvent or surfactant or cyclodextrin, PEG 400/PB (30:70, vol:vol) + 3% polysorbate 80, PB = Phosphate buffer 10 mmol/L pH 6.5): 20 µg/mL | solubility ([1]; pH 6.5, aqueous with cosolvent or surfactant or cyclodextrin, PEG 400/PB (30:70, vol:vol) + 10% poloxamer 407, PB = Phosphate buffer 10 mmol/L pH 6.5): 54 µg/mL | solubility ([1]; polyethylene glycol PEG 400, organic solvent or mixture, Polyethylene glycol PEG 400): 10500 µg/mL | fraction unbound (Plasma protein binding): 0.0008
